Assay [1] relates to Plasmodium berghei (Pb-Luc) exoerythrocytic-stage parasites. Particulars: for normalized signal at concentration 0.000508053 / normalized signal at concentration 0.00152416 / normalized signal at concentration 0.00457247 / normalized signal at concentration 0.0137174 / normalized signal at concentration 0.0411523 / normalized signal at concentration 0.123457 / normalized signal at concentration 0.37037 / normalized signal at concentration 1.11111 / normalized signal at concentration 3.33333 / normalized signal at concentration 10: fraction of control; for IC50: read-out: PbLuc_IC50.

For another assay, the system named is HepG2-A16-CD81EGFP cells. Particulars: for IC50: read-out: Tox_IC50, HepG2 cytotoxicity.
Where [2] appears, read: second series of columns (replicate).
Setting [3] is: sheet 2nd round, maximal inhibition in dose response.
The mark [4] stands for this setting: first series of dose-response columns.
The mark [5] stands for this setting: sheet 2nd round, Broad compounds, dose response.
Where [6] appears, read: second series of dose-response columns.

Read-outs that look alike come from different tables or passages of the source.

For `C[C@@H]1CN([C@@H](C)CO)C(=O)c2ccccc2-c2ccccc2CO[C@@H]1CN(C)S(=O)(=O)Cc1ccccc1` [BRD-K06421369-001-01-0], in assay [1] (first series of columns), the “normalized signal at concentration 0.000508053” value amounted to 1.055, the “normalized signal at concentration 0.00152416” value is 1.041, the “normalized signal at concentration 0.00457247” value stood at 0.8367 and the “normalized signal at concentration 0.0137174” value was found to be 0.8756. Also, in assay [1] (first series of columns), the “normalized signal at concentration 0.0411523” value is given as 0.8835, the “normalized signal at concentration 0.123457” value is 1.014, the “normalized signal at concentration 0.37037” value turned out to be 0.8794 and the “normalized signal at concentration 1.11111” value was found to be 0.8244. For the same compound, in assay [1] (first series of columns), the “normalized signal at concentration 3.33333” value stood at 1.118 and the “normalized signal at concentration 10” value worked out at 0.9941. Further, the IC50 in assay [1] (sheet 2nd round, Pb-Luc exoerythrocytic stage, 10-point dose response, top concentration 10) was more than 10 µM. Moreover, in assay [1] (setting [2]), the “normalized signal at concentration 0.000508053” value was found to be 0.9052, the “normalized signal at concentration 0.00152416” value came to 1.004, the “normalized signal at concentration 0.00457247” value is given as 1.069 and the “normalized signal at concentration 0.0137174” value was 0.9457. For the same compound, in assay [1] (setting [2]), the “normalized signal at concentration 0.0411523” value amounted to 0.8932, the “normalized signal at concentration 0.123457” value was found to be 1.033, the “normalized signal at concentration 0.37037” value is 1.094 and the “normalized signal at concentration 1.11111” value is listed as 1.104. For the same compound, in assay [1] (setting [2]), the “normalized signal at concentration 3.33333” value stood at 1.032 and the “normalized signal at concentration 10” value is on record as 0.8304. Moreover, the “PbLuc_max_inhibition (%)” value in assay [1] (setting [3]) amounted to 18%. In addition, in the assay on HepG2-A16-CD81EGFP cells (sheet 2nd round), the IC50 is more than 10 µM. In the assay with HepG2-A16-CD81EGFP cells (setting [3]), the “Tox_max_inhibition (%)” value worked out at 8.54%.

Turning to `O=C(C1CCOCC1)N1C[C@@H]2[C@H](c3ccccc31)[C@H](CO)N2C(=O)Cc1ccccn1` [BRD-K09790760-001-01-0], in assay [1] (concentration 0.000508053, first series), the “normalised signal at concentration 0.000508053 (first series)” value came to 0.7162. In addition, the “normalised signal at concentration 0.000508053 (second series)” value in assay [1] (concentration 0.000508053, second series) came to 0.9348. Moreover, the “normalised signal at concentration 0.00152416 (first series)” value in assay [1] (concentration 0.00152416, first series) worked out at 0.8009. Besides, the “normalised signal at concentration 0.00152416 (second series)” value in assay [1] (concentration 0.00152416, second series) is reported as 0.7622. The “normalised signal at concentration 0.00457247 (first series)” value in assay [1] (concentration 0.00457247, first series) amounted to 0.9824. Further, the “normalised signal at concentration 0.00457247 (second series)” value in assay [1] (concentration 0.00457247, second series) was 0.8311. In assay [1] (concentration 0.0137174, first series), the “normalised signal at concentration 0.0137174 (first series)” value is 0.8823. Also, the “normalised signal at concentration 0.0137174 (second series)” value in assay [1] (concentration 0.0137174, second series) stood at 0.8539. The “normalised signal at concentration 0.0411523 (first series)” value in assay [1] (concentration 0.0411523, first series) was 1.052. The “normalised signal at concentration 0.0411523 (second series)” value in assay [1] (concentration 0.0411523, second series) stood at 0.8968. In addition, the “normalised signal at concentration 0.123457 (first series)” value in assay [1] (concentration 0.123457, first series) stood at 0.7822. Besides, the “normalised signal at concentration 0.123457 (second series)” value in assay [1] (concentration 0.123457, second series) came to 0.8152. The “normalised signal at concentration 0.37037 (first series)” value in assay [1] (concentration 0.37037, first series) was 0.9579. Further, in assay [1] (concentration 0.37037, second series), the “normalised signal at concentration 0.37037 (second series)” value came out at 1.035. In addition, in assay [1] (concentration 1.11111, first series), the “normalised signal at concentration 1.11111 (first series)” value came to 0.8507. In assay [1] (concentration 1.11111, second series), the “normalised signal at concentration 1.11111 (second series)” value was 0.8044. The “normalised signal at concentration 3.33333 (first series)” value in assay [1] (concentration 3.33333, first series) came to 0.9897. Also, the “normalised signal at concentration 3.33333 (second series)” value in assay [1] (concentration 3.33333, second series) was determined as 1.088. In assay [1] (concentration 10, first series of dose columns), the “normalised signal at concentration 10 (first series)” value stood at 0.9272. The “normalised signal at concentration 10 (second series)” value in assay [1] (concentration 10, second series of dose columns) came out at 0.9177. The IC50 in assay [1] (sheet "2nd round", Broad compounds, dose response top concentration 10) was more than 10 µM. Besides, the “PbLuc_max_inhibition (%)” value in assay [1] (sheet "2nd round") was 28%. For the same compound, in the assay with HepG2-A16-CD81EGFP cells (sheet "2nd round"), the IC50 is more than 10 µM and the “Tox_max_inhibition (%)” value came to 5%.

Take `C[C@@H]1CN([C@H](C)CO)C(=O)c2cc(N(C)C)ccc2O[C@@H](C)CCCCO[C@@H]1CN(C)S(=O)(=O)c1ccc(F)cc1` [BRD-K12341671-001-01-5]: in assay [1] (setting [4]), the “normalized signal at concentration 10” value turned out to be 0.50. Further, in assay [1] (first series), the “normalized signal at concentration 0.000508053” value is given as 0.77, the “normalized signal at concentration 0.00152416” value turned out to be 1.03, the “normalized signal at concentration 0.00457247” value was 1.06 and the “normalized signal at concentration 0.0137174” value is recorded as 0.89. Moreover, in assay [1] (first series), the “normalized signal at concentration 0.0411523” value was found to be 0.99, the “normalized signal at concentration 0.123457” value is given as 1.04, the “normalized signal at concentration 0.37037” value stood at 0.93 and the “normalized signal at concentration 1.11111” value worked out at 0.88. In addition, in assay [1] (first series), the “normalized signal at concentration 3.33333” value is given as 0.70. The IC50 in assay [1] (setting [5]) is more than 10 µM. The “normalized signal at concentration 10” value in assay [1] (setting [6]) was determined as 0.50. In addition, in assay [1] (second series), the “normalized signal at concentration 0.000508053” value was determined as 0.88, the “normalized signal at concentration 0.00152416” value is 1.15, the “normalized signal at concentration 0.00457247” value is reported as 0.85 and the “normalized signal at concentration 0.0137174” value was 0.84. For the same compound, in assay [1] (second series), the “normalized signal at concentration 0.0411523” value came to 0.98, the “normalized signal at concentration 0.123457” value is given as 0.98, the “normalized signal at concentration 0.37037” value came to 0.92 and the “normalized signal at concentration 1.11111” value is 0.85. For the same compound, the “normalized signal at concentration 3.33333” value in assay [1] (second series) turned out to be 0.80. The “PbLuc_max_inhibition (%)” value in assay [1] (setting [3]) is reported as 50%. Further, the IC50 in the assay on HepG2-A16-CD81EGFP cells (sheet 2nd round) is more than 10 µM. For the same compound, the “Tox_max_inhibition (%)” value with HepG2-A16-CD81EGFP cells (setting [3]) is listed as 5%.

For the compound `C[C@H]1CN([C@@H](C)CO)C(=O)c2cc(C#Cc3ccccc3)cnc2O[C@H]1CN(C)C(=O)c1ccccc1` [BRD-K12503654-001-01-1], the “normalized signal at concentration 10” value in assay [1] (setting [4]) is listed as 0.56. Further, in assay [1] (first series), the “normalized signal at concentration 0.000508053” value worked out at 1.00, the “normalized signal at concentration 0.00152416” value was determined as 1.04, the “normalized signal at concentration 0.00457247” value was 1.07 and the “normalized signal at concentration 0.0137174” value is listed as 1.02. For the same compound, in assay [1] (first series), the “normalized signal at concentration 0.0411523” value was 1.04, the “normalized signal at concentration 0.123457” value is listed as 0.97, the “normalized signal at concentration 0.37037” value was 0.92 and the “normalized signal at concentration 1.11111” value is 1.13. In assay [1] (first series), the “normalized signal at concentration 3.33333” value worked out at 0.83. In addition, the IC50 in assay [1] (setting [5]) was more than 10 µM. The “normalized signal at concentration 10” value in assay [1] (setting [6]) stood at 0.51. Moreover, in assay [1] (second series), the “normalized signal at concentration 0.000508053” value is recorded as 1.07, the “normalized signal at concentration 0.00152416” value is reported as 0.85, the “normalized signal at concentration 0.00457247” value is listed as 1.01 and the “normalized signal at concentration 0.0137174” value is 0.97. Besides, in assay [1] (second series), the “normalized signal at concentration 0.0411523” value amounted to 1.21, the “normalized signal at concentration 0.123457” value stood at 1.03, the “normalized signal at concentration 0.37037” value came to 1.11 and the “normalized signal at concentration 1.11111” value was 0.90. Further, in assay [1] (second series), the “normalized signal at concentration 3.33333” value worked out at 0.91. In assay [1] (setting [3]), the “PbLuc_max_inhibition (%)” value is on record as 49%. In addition, the IC50 in the assay on HepG2-A16-CD81EGFP cells (sheet 2nd round) was more than 10 µM. Also, the “Tox_max_inhibition (%)” value in the assay on HepG2-A16-CD81EGFP cells (setting [3]) came to 5.33%.

`CC(C)[C@H]1COCn2nncc2CCCC(=O)N1` [BRD-K14350179-001-01-1]: the “normalized signal at concentration 10” value in assay [1] (setting [4]) worked out at 0.98. Further, in assay [1] (first series), the “normalized signal at concentration 0.000508053” value was determined as 0.82, the “normalized signal at concentration 0.00152416” value came to 0.73, the “normalized signal at concentration 0.00457247” value came out at 0.94 and the “normalized signal at concentration 0.0137174” value stood at 0.81. Further, in assay [1] (first series), the “normalized signal at concentration 0.0411523” value is 0.80, the “normalized signal at concentration 0.123457” value is reported as 0.97, the “normalized signal at concentration 0.37037” value is 0.84 and the “normalized signal at concentration 1.11111” value was determined as 0.77. In assay [1] (first series), the “normalized signal at concentration 3.33333” value is given as 0.76. In assay [1] (setting [5]), the IC50 is more than 10 µM. Also, the “normalized signal at concentration 10” value in assay [1] (setting [6]) is listed as 1.05. Moreover, in assay [1] (second series), the “normalized signal at concentration 0.000508053” value was 0.94, the “normalized signal at concentration 0.00152416” value is 1.04, the “normalized signal at concentration 0.00457247” value is 1.06 and the “normalized signal at concentration 0.0137174” value was 0.87. In addition, in assay [1] (second series), the “normalized signal at concentration 0.0411523” value was found to be 1.07, the “normalized signal at concentration 0.123457” value amounted to 1.10, the “normalized signal at concentration 0.37037” value was found to be 1.01 and the “normalized signal at concentration 1.11111” value was determined as 0.86. For the same compound, in assay [1] (second series), the “normalized signal at concentration 3.33333” value is 0.89. For the same compound, the “PbLuc_max_inhibition (%)” value in assay [1] (setting [3]) stood at 27%. Also, the IC50 in the assay on HepG2-A16-CD81EGFP cells (sheet 2nd round) was more than 10 µM. Further, in the assay on HepG2-A16-CD81EGFP cells (setting [3]), the “Tox_max_inhibition (%)” value worked out at 5.35%.

The record behind these values is paper PMC4890880 (ACS infectious diseases, 2016).
